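Five compound concentrations were applied to cells in 96-well plates for 48 hours; endpoints were derived by simple linear interpolation of the resulting dose-response curve. GI50 = concentration required for 50% inhibition of growth.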 Activity calls are given as the source filed them. No stated cut-off is given here; in the data, active = GI50 up to about 1.1 µM and inactive = higher.
Columns and labels:
Experiment in all cases: NCI tumour cell line growth inhibition, 48 h
[1] = test system: 786-0
[2] = test system: A498
[3] = test system: A549
[4] = test system: ACHN
[5] = test system: CAKI-1
[6] = test system: CCRF-CEM
[7] = test system: COLO 205
[8] = test system: DLD-1
[9] = test system: DMS-114
[10] = test system: DMS-273
[11] = test system: EKVX
[12] = test system: HCC 2998
[13] = test system: HCT-116
[14] = test system: HCT-15
[15] = test system: HL-60
[16] = test system: HOP-18
[17] = test system: HOP-62
[18] = test system: HOP-92
[19] = test system: HT-29
[20] = test system: IGROV-1
[21] = test system: K562
[22] = test system: KM-20L2
[23] = test system: KM12
[24] = test system: LOX IMVI
[25] = test system: LXFL 529
[26] = test system: M14
[27] = test system: M19-MEL
[28] = test system: MOLT-4
[29] = test system: Malme-3M
[30] = test system: NCI-H226
[31] = test system: NCI-H23
[32] = test system: NCI-H460
[33] = test system: OVCAR-3
[34] = test system: OVCAR-4
[35] = test system: OVCAR-5
[36] = test system: OVCAR-8
[37] = test system: RPMI-8226
[38] = test system: RXF 631
[39] = test system: SF-268
[40] = test system: SF-295
[41] = test system: SF-539
[42] = test system: SK-MEL-28
[43] = test system: SK-MEL-2
[44] = test system: SK-MEL-5
[45] = test system: SK-OV-3
[46] = test system: SN12C
[47] = test system: SNB-19
[48] = test system: SNB-75
[49] = test system: SR
[50] = test system: SW-620
[51] = test system: TK-10
[52] = test system: U-251
[53] = test system: UACC-257
[54] = test system: UACC-62
[55] = test system: UO-31

COc1ccccc1NC(=O)C1=C(C)NC(C)=C(C(=O)Nc2ccccc2OC)C1c1cccc2c1OCO2
GI50 [1]: > 100 µM (inactive)
GI50 [2]: > 100 µM (inactive)
GI50 [3]: 62.7 µM (inactive)
GI50 [4]: 58.9 µM (inactive)
GI50 [5]: > 100 µM (inactive)
GI50 [6]: 34.6 µM (inactive)
GI50 [7]: > 100 µM (inactive)
GI50 [8]: > 100 µM (inactive)
GI50 [9]: 77.3 µM (inactive)
GI50 [10]: > 100 µM (inactive)
GI50 [11]: > 100 µM (inactive)
GI50 [12]: 85.7 µM (inactive)
GI50 [13]: 71.9 µM (inactive)
GI50 [14]: > 100 µM
GI50 [15]: 41.2 µM (inactive)
GI50 [16]: > 100 µM (inactive)
GI50 [17]: > 100 µM (inactive)
GI50 [18]: > 100 µM (inactive)
GI50 [19]: > 100 µM (inactive)
GI50 [20]: > 100 µM (inactive)
GI50 [21]: 51.1 µM (inactive)
GI50 [22]: > 100 µM (inactive)
GI50 [23]: 60.7 µM (inactive)
GI50 [24]: > 100 µM (inactive)
GI50 [25]: 69.2 µM (inactive)
GI50 [26]: > 100 µM (inactive)
GI50 [27]: > 100 µM (inactive)
GI50 [28]: 20.7 µM (inactive)
GI50 [29]: > 100 µM (inactive)
GI50 [30]: > 100 µM (inactive)
GI50 [31]: > 100 µM (inactive)
GI50 [32]: > 100 µM (inactive)
GI50 [33]: > 100 µM (inactive)
GI50 [34]: > 100 µM (inactive)
GI50 [35]: > 100 µM (inactive)
GI50 [36]: > 100 µM (inactive)
GI50 [37]: 33 µM (inactive)
GI50 [38]: > 100 µM (inactive)
GI50 [39]: > 100 µM (inactive)
GI50 [40]: > 100 µM (inactive)
GI50 [41]: 21.4 µM (inactive)
GI50 [42]: > 100 µM (inactive)
GI50 [43]: 48.2 µM (inactive)
GI50 [44]: 46 µM (inactive)
GI50 [45]: > 100 µM (inactive)
GI50 [46]: > 100 µM (inactive)
GI50 [47]: 91.8 µM (inactive)
GI50 [48]: 14.1 µM (inactive)
GI50 [49]: 30.5 µM (inactive)
GI50 [50]: > 100 µM (inactive)
GI50 [51]: > 100 µM (inactive)
GI50 [52]: > 100 µM (inactive)
GI50 [53]: > 100 µM (inactive)
GI50 [54]: > 100 µM (inactive)
GI50 [55]: 47.4 µM (inactive)
